For assay [1], the target named is T1, Serine/threonine-protein kinase Sgk3 (Homo sapiens) (UniProt Q96BR1).
T1 sequence (whole entry): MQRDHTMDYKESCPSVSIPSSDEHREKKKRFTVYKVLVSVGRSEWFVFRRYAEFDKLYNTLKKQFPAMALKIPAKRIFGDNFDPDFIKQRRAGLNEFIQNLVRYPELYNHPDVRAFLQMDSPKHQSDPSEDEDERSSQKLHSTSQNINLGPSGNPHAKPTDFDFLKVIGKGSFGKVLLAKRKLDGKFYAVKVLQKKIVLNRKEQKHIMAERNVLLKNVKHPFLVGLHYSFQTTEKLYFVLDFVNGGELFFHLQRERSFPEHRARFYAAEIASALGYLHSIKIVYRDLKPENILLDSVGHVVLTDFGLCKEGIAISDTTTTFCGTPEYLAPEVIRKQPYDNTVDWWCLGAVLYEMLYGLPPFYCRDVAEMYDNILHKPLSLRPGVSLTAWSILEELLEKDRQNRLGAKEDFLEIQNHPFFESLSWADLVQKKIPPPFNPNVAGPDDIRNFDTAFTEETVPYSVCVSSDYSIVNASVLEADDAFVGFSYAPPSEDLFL
Briefly: Selectivity interaction (SelectScreen profiling (Invitrogen)) EUB0000607a SGK3. Conditions: at 2 µM.

The target of assay [2] is Insulin-like growth factor 1 receptor (Homo sapiens, UniProt P08069). Briefly: Selectivity interaction (KinomeScan (DiscoverX)) EUB0000607a IGF1R. Conditions: at 10 µM.
The target in assay [3] is Platelet-derived growth factor receptor beta (Homo sapiens, UniProt P09619). The assay can be described thus: Selectivity interaction (KinomeScan (DiscoverX)) EUB0000229b PDGFRB. The following applies: at 10 µM.
Assay [4] addresses Mitogen-activated protein kinase kinase kinase 9 (Homo sapiens) (UniProt P80192). Briefly: Selectivity interaction (Kinase panel (literature)) EUB0001199aCl MAP3K9. The following applies: at 1 µM.
For assay [5], the target named is T2, STE20-related kinase adapter protein alpha (Homo sapiens) (UniProt Q7RTN6).
T2 sequence (whole entry): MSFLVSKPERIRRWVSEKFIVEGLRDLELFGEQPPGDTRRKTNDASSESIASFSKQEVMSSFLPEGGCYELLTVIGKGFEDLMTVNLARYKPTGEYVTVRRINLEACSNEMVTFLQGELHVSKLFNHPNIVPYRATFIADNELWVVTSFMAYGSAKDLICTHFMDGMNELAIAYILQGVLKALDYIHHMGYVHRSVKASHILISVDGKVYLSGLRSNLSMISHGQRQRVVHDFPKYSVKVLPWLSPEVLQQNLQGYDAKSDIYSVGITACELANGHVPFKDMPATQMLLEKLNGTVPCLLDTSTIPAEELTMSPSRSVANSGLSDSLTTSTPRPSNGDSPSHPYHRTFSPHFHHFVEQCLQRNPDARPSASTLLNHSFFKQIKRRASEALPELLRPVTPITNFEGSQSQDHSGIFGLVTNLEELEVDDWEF
The assay can be described thus: Selectivity interaction (ActivX KiNativ screen (kinase selectivity in THP-1 cell lysates)) EUB0000639a STRADA. In kind it is subcellular. Conditions: lysate, at 0.2 µM.

Assay [6] deals with Ribosomal protein S6 kinase alpha-3 (Homo sapiens, UniProt P51812). The assay can be described thus: Selectivity interaction (Kinase screening (Nanosyn)) EUB0000604a RPS6KA3.
Assay [7] deals with T3, Myosin light chain kinase family member 4 (Homo sapiens) (UniProt Q86YV6).
T3 sequence (whole entry): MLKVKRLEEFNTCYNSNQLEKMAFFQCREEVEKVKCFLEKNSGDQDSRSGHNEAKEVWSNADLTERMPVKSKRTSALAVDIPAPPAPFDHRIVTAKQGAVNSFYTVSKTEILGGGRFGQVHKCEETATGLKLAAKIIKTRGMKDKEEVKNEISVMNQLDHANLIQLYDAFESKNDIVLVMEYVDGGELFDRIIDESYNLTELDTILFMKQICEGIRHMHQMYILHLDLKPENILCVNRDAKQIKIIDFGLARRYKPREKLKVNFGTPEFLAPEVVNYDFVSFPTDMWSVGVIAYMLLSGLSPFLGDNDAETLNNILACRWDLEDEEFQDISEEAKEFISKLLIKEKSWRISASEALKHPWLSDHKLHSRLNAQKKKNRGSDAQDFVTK
The assay can be described thus: Selectivity interaction (KinomeScan (DiscoverX)) EUB0000695a MYLK4. The following applies: at 100 nM.

Assay [8] concerns the target T4, Serine/threonine-protein kinase 17A (Homo sapiens) (UniProt Q9UEE5).
T4 sequence (whole entry): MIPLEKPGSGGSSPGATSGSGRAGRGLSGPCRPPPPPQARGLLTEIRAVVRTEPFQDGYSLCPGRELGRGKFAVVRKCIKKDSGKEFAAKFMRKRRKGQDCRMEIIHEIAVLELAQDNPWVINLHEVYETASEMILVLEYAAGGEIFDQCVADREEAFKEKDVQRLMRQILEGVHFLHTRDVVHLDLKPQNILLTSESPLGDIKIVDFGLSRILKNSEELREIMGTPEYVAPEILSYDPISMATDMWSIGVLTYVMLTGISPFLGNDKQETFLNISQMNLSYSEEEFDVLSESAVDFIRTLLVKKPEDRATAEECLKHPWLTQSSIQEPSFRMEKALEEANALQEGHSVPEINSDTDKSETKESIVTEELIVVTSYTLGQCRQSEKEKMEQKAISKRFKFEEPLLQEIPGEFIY
The assay can be described thus: Selectivity interaction (KinomeScan (DiscoverX)) EUB0000092b STK17A. The following applies: at 10 µM.

Assay [9] has as its target T5, Serine/threonine-protein kinase Chk1 (Homo sapiens) (UniProt O14757).
T5 sequence (whole entry): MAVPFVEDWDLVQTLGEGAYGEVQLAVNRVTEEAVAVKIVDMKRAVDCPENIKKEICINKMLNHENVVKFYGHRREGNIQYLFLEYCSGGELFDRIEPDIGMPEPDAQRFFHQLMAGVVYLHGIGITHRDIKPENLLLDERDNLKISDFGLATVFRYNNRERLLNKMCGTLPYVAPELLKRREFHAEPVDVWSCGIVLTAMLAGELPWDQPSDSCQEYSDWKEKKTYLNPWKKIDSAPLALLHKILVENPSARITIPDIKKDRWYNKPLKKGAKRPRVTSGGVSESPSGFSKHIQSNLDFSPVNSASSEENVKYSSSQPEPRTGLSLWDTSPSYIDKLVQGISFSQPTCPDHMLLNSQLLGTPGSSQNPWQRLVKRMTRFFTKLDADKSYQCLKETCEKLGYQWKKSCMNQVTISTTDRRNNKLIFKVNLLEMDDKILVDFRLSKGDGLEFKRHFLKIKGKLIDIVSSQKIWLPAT
Briefly: Selectivity interaction (Upstate Kinase Profiler service (Millipore)) EUB0000056c CHEK1. The following applies: at 1 µM.

Molecules are shown by their SMILES.

Sequence of Ribosomal protein S6 kinase alpha-3 (P51812 whole entry): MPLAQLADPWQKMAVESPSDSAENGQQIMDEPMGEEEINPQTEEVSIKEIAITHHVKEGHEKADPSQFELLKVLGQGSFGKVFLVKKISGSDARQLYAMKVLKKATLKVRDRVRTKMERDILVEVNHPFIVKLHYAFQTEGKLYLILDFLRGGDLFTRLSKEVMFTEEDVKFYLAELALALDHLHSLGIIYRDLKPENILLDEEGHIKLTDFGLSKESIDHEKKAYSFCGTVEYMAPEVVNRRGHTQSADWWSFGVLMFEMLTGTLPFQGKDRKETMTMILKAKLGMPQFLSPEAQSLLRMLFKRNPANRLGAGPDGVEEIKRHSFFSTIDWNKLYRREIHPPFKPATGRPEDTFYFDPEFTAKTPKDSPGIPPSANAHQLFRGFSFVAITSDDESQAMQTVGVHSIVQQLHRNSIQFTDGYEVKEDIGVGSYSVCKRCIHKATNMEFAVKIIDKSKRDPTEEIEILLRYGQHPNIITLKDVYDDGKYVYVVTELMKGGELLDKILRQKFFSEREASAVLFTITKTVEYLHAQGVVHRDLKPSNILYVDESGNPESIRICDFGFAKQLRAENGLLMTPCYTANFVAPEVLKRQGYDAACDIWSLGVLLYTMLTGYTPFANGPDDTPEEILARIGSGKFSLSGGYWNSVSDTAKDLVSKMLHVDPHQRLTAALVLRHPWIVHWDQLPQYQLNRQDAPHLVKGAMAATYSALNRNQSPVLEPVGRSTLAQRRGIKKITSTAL
Sequence of Insulin-like growth factor 1 receptor (P08069 31-736 limits assumed): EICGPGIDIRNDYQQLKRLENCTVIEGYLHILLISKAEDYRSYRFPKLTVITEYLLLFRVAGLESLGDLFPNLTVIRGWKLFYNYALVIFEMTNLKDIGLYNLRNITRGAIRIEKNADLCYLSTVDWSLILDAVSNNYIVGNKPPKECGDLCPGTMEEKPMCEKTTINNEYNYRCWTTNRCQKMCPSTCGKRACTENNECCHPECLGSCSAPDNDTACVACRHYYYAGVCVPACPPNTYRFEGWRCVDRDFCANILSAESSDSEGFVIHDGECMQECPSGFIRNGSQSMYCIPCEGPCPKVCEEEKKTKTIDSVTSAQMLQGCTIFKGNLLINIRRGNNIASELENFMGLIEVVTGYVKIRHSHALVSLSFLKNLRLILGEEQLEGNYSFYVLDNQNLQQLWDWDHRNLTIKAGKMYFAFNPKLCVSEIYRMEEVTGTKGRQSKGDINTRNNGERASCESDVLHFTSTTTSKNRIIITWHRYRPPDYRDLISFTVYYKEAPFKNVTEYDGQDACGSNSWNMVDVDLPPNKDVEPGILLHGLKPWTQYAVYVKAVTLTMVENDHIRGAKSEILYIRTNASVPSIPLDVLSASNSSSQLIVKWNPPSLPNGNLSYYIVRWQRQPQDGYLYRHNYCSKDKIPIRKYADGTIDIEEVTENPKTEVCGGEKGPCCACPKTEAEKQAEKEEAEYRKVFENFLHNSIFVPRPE
Sequence of Insulin-like growth factor 1 receptor (P08069 741-1367 limits assumed): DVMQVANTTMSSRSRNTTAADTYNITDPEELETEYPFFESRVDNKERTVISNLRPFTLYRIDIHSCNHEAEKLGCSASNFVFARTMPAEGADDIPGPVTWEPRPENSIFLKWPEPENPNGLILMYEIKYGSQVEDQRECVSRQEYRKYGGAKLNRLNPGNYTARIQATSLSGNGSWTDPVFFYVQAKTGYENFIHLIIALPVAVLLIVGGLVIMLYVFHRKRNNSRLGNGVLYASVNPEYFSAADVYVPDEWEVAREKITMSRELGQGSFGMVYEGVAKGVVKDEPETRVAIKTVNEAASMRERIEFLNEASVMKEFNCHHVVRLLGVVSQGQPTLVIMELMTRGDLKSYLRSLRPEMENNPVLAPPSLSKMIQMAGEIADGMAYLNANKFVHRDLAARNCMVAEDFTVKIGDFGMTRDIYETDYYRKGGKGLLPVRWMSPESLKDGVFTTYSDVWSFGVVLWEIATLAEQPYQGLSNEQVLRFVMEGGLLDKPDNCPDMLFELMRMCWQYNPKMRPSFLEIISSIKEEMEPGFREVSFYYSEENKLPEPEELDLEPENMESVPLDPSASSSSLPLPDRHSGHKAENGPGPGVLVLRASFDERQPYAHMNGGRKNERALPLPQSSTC
Sequence of Mitogen-activated protein kinase kinase kinase 9 (Homo sapiens) (P80192 whole entry, looked up): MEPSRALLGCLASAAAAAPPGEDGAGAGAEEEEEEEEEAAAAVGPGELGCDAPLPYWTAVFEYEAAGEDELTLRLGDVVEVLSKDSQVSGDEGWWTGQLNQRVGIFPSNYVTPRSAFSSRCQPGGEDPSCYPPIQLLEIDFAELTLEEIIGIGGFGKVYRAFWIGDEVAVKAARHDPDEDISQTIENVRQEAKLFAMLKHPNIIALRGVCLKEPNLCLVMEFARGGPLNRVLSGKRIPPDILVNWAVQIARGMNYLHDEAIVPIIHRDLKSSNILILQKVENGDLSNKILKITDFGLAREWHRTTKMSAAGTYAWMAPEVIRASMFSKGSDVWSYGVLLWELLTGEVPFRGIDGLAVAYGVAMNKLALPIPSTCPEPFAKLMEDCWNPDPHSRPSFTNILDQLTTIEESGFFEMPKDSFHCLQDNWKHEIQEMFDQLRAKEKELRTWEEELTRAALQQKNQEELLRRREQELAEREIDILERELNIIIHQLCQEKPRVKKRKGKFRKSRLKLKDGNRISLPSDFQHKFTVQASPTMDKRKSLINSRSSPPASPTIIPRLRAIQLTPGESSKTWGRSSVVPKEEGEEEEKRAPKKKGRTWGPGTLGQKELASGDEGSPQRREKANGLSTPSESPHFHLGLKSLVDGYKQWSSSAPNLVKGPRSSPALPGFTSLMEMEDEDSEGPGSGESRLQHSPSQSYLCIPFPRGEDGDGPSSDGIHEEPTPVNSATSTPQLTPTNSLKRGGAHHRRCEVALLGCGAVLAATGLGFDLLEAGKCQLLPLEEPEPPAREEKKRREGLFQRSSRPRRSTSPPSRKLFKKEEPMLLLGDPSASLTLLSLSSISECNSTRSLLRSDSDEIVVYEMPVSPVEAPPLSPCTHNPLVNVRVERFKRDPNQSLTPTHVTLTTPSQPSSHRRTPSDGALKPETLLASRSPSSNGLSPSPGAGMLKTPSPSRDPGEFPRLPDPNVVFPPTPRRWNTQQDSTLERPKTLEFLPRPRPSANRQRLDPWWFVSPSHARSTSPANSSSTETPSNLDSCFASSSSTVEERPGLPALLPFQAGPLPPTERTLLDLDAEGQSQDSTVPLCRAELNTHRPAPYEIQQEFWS
Sequence of Platelet-derived growth factor receptor beta (P09619 whole entry): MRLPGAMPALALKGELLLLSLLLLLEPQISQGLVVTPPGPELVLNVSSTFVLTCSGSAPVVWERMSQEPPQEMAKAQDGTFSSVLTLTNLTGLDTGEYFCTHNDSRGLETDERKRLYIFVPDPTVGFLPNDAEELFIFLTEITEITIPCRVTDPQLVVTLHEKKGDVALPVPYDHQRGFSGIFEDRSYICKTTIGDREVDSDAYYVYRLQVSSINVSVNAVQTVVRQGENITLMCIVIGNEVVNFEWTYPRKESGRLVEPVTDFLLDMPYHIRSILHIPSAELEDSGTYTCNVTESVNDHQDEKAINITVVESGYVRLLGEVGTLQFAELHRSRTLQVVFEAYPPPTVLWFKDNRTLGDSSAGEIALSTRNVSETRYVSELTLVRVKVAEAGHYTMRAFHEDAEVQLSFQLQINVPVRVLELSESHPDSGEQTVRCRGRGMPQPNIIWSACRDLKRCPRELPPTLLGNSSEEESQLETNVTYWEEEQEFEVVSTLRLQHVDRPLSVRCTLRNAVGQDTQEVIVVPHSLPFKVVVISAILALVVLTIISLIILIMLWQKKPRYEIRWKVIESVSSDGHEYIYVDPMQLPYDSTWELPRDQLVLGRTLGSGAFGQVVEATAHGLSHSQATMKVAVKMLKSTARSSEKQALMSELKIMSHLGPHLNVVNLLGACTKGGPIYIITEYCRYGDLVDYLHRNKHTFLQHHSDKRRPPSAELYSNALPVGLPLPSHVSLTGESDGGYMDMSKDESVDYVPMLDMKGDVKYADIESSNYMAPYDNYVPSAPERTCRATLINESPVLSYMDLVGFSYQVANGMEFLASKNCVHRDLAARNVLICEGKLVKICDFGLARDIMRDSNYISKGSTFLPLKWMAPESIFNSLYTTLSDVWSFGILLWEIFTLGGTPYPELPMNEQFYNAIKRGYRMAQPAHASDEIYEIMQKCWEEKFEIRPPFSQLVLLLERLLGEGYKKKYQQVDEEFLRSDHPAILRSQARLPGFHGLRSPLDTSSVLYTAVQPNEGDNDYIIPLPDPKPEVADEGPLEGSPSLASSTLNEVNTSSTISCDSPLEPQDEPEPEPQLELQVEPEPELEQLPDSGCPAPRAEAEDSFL

On to `CNC(=O)Nc1ccc(-c2nc(N3CC4CCC(C3)O4)c3cnn(C4CCC5(CC4)OCCO5)c3n2)cc1`, for which, in assay [1], the % of inhibition was determined as 3%. In [2], this compound gave a % of control of 93%. In the case of `COc1cc(N(C)c2ccnc3ccc(C(F)(F)F)cc23)cc(OC)c1OC`, the % binding in assay [3] is 98%. Take `CN1Cc2nccc(-c3cn(C)nc3-c3ccc(F)cc3)c2C1=O`: in assay [4], the % of inhibition is 2%. Consider `CC[C@@H]1[C@H](F)C(=O)N[C@@H]1COc1nccc2cc(C(N)=O)c(OC)cc12` [ZIMLOVISERTIB], for which the % of inhibition in [5] was -15.4%.

In the case of `Cc1cnc(Nc2ccc(F)cc2Cl)nc1-c1c[nH]c(C(=O)N[C@H](CO)c2cccc(Cl)c2)c1`, in assay [6], the % of inhibition amounted to 6%. In turn, `Cc1cc(F)c(C(=O)Nc2cccc(-c3nncn3C(C)C)n2)cc1-n1cnc(C2CC2)c1` showed a % of control in assay [7] of 100%.

In assay [8], `CCC(=O)N1CCN(c2ccc(-n3c(=O)ccc4cnc5ccc(-c6cnc7ccccc7c6)cc5c43)cc2C(F)(F)F)CC1` yielded a % of control of 93%. `Cc1ccc(-c2ccc3c(ccc4sc5c(c43)NC[C@@H](C)NC5=O)n2)cn1`: the % of inhibition in assay [9] came out at 12%.
